Measurements from patent publication US5026848A, “Novel generation of heteroaryloxyalkyl heterocycles with antipicornaviruses activities” (Synphar Laboratories Incorporated, priority 1988, dated 1991).
In brackets after ≈: the same amount, converted by molar mass.

Columns and labels:
[1] = tested on: WI38 cells; experiment: Toxicity to WI38 cells (change in morphology in / growth inhibition of 25% of the cells); type: cell-based
[2] = tested on: Rhinovirus 1A; experiment: Anti-rhinovirus activity, cytopathic effect inhibition / neutral red dye uptake, type 1A; type: cell-based; settings: Enterovirus, WI-38; Table I; WI38 cells, 33° C., 3-4 days; NA = Not active; read-out: MIC50 Rhinovirus 1A
[3] = tested on: Rhinovirus 1B; experiment: Anti-rhinovirus activity, cytopathic effect inhibition / neutral red dye uptake, type 1B; type: cell-based; settings: Enterovirus, WI-38; Table II; one of seven commonest serotypes; read-out: MIC 50 Rhinovirus Type 1B
[4] = tested on: Rhinovirus 2; experiment: Anti-rhinovirus activity, cytopathic effect inhibition / neutral red dye uptake, type 2; type: cell-based; settings: Enterovirus, WI-38; Table II; one of seven commonest serotypes; read-out: MIC 50 Rhinovirus Type 2
[5] = tested on: Rhinovirus 4; experiment: Anti-rhinovirus activity, cytopathic effect inhibition / neutral red dye uptake, type 4; type: cell-based; settings: Enterovirus, WI-38; Table II; one of seven commonest serotypes; read-out: MIC 50 Rhinovirus Type 4
[6] = tested on: Rhinovirus 15; experiment: Anti-rhinovirus activity, cytopathic effect inhibition / neutral red dye uptake, type 15; type: cell-based; settings: Enterovirus, WI-38; Table II; one of seven commonest serotypes; read-out: MIC 50 Rhinovirus Type 15
[7] = tested on: Rhinovirus 17; experiment: Anti-rhinovirus activity, cytopathic effect inhibition / neutral red dye uptake, type 17; type: cell-based; settings: Enterovirus, WI-38; Table II; read-out: MIC 50 Rhinovirus Type 17
[8] = tested on: Rhinovirus 23; experiment: Anti-rhinovirus activity, cytopathic effect inhibition / neutral red dye uptake, type 23; type: cell-based; settings: Enterovirus, WI-38; Table II; read-out: MIC 50 Rhinovirus Type 23
[9] = tested on: Rhinovirus 29; experiment: Anti-rhinovirus activity, cytopathic effect inhibition / neutral red dye uptake, type 29; type: cell-based; settings: Enterovirus, WI-38; Table II; one of seven commonest serotypes; read-out: MIC 50 Rhinovirus Type 29
[10] = tested on: Rhinovirus 30; experiment: Anti-rhinovirus activity, cytopathic effect inhibition / neutral red dye uptake, type 30; type: cell-based; settings: Enterovirus, WI-38; Table II; read-out: MIC 50 Rhinovirus Type 30
[11] = tested on: Rhinovirus 31; experiment: Anti-rhinovirus activity, cytopathic effect inhibition / neutral red dye uptake, type 31; type: cell-based; settings: Enterovirus, WI-38; Table II; one of seven commonest serotypes; read-out: MIC 50 Rhinovirus Type 31
[12] = tested on: Rhinovirus 32; experiment: Anti-rhinovirus activity, cytopathic effect inhibition / neutral red dye uptake, type 32; type: cell-based; settings: Enterovirus, WI-38; Table II; read-out: MIC 50 Rhinovirus Type 32
[13] = tested on: Rhinovirus 36; experiment: Anti-rhinovirus activity, cytopathic effect inhibition / neutral red dye uptake, type 36; type: cell-based; settings: Enterovirus, WI-38; Table II; read-out: MIC 50 Rhinovirus Type 36
[14] = tested on: Rhinovirus 39; experiment: Anti-rhinovirus activity, cytopathic effect inhibition / neutral red dye uptake, type 39; type: cell-based; settings: Enterovirus, WI-38; Table I; WI38 cells, 33° C., 3-4 days; read-out: MIC50 Rhinovirus 39
[15] = tested on: Rhinovirus 44; experiment: Anti-rhinovirus activity, cytopathic effect inhibition / neutral red dye uptake, type 44; type: cell-based; settings: Enterovirus, WI-38; Table II; read-out: MIC 50 Rhinovirus Type 44
[16] = tested on: Rhinovirus 49; experiment: Anti-rhinovirus activity, cytopathic effect inhibition / neutral red dye uptake, type 49; type: cell-based; settings: Enterovirus, WI-38; Table II; read-out: MIC 50 Rhinovirus Type 49
[17] = tested on: Rhinovirus 53; experiment: Anti-rhinovirus activity, cytopathic effect inhibition / neutral red dye uptake, type 53; type: cell-based; settings: Enterovirus, WI-38; Table II; read-out: MIC 50 Rhinovirus Type 53
[18] = tested on: Rhinovirus 56; experiment: Anti-rhinovirus activity, cytopathic effect inhibition / neutral red dye uptake, type 56; type: cell-based; settings: Enterovirus, WI-38; Table II; read-out: MIC 50 Rhinovirus Type 56
[19] = tested on: Rhinovirus 63; experiment: Anti-rhinovirus activity, cytopathic effect inhibition / neutral red dye uptake, type 63; type: cell-based; settings: Enterovirus, WI-38; Table II; read-out: MIC 50 Rhinovirus Type 63
[20] = tested on: Rhinovirus 86; experiment: Anti-rhinovirus activity, cytopathic effect inhibition / neutral red dye uptake, type 86; type: cell-based; settings: Enterovirus, WI-38; Table II; read-out: MIC 50 Rhinovirus Type 86
[21] = tested on: Rhinovirus 88; experiment: Anti-rhinovirus activity, cytopathic effect inhibition / neutral red dye uptake, type 88; type: cell-based; settings: Enterovirus, WI-38; Table II; read-out: MIC 50 Rhinovirus Type 88
[22] = tested on: Polio 1; experiment: microbe, parasite or virus in culture; type: cell-based; settings: Enterovirus, read-out: MIC 50 Polio 1
[23] = tested on: Coxsacki-A9; experiment: Activity against other picornaviruses, Coxsacki-A9; type: cell-based; settings: Enterovirus, read-out: MIC 50 Cox. A9
[24] = tested on: Coxsacki-A21; experiment: Activity against other picornaviruses, Coxsacki-A21; type: cell-based; settings: Enterovirus, read-out: MIC 50 Cox. A21
[25] = tested on: Coxsacki-B1; experiment: Activity against other picornaviruses, Coxsacki-B1; type: cell-based; settings: Enterovirus, read-out: MIC 50 Cox. B1
[26] = tested on: Coxsacki-B4; experiment: Activity against other picornaviruses, Coxsacki-B4; type: cell-based; settings: Enterovirus, read-out: MIC 50 Cox. B4
[27] = tested on: Echo-7; experiment: Activity against other picornaviruses, Echo-7; type: cell-based; settings: Enterovirus, read-out: MIC 50 Echo 7
[28] = tested on: Echo-11; experiment: Activity against other picornaviruses, Echo-11; type: cell-based; settings: Enterovirus, read-out: MIC 50 Echo 11
[29] = tested on: Enterovirus serotypes; type: cell-based
[30] = tested on: HRV-1A and HRV-39; experiment: Anti-rhinovirus activity against HRV-1A and HRV-39; settings: in words
[31] = tested on: 20 serotypes of rhinovirus; experiment: Anti-rhinovirus activity against a panel of 20 serotypes; settings: Table II; numerator; denominator 20, but 10 for compound 8 and 6 for compound 30

## c1ccc2c(c1)oc1ccc(OCCCCCCc3ccns3)cc12 [Compound 25]
[1]; Table I, concentration with change in morphology in 25% of WI38 cells
  Toxicity: 50 µg/mL
[1]; Table II
  Toxicity: 50 µg/mL
[1]; Table III
  Toxicity: 50 µg/mL
[2]
  EC50: 10 µg/mL (≈ 28.5 µM)
[3]
  IC50: 5 µg/mL (≈ 14.2 µM)
[4]
  IC50: 20 µg/mL (≈ 56.9 µM)
[5]
  IC50: > 25 µg/mL
[6]
  IC50: 10 µg/mL (≈ 28.5 µM)
[7]
  IC50: 10 µg/mL (≈ 28.5 µM)
[8]
  IC50: 5 µg/mL (≈ 14.2 µM)
[9]
  IC50: 5 µg/mL (≈ 14.2 µM)
[10]
  IC50: 10 µg/mL (≈ 28.5 µM)
[11]
  EC50: > 25 µg/mL
[12]
  EC50: 10 µg/mL (≈ 28.5 µM)
[13]
  EC50: > 25 µg/mL
[14]
  EC50: 5 µg/mL (≈ 14.2 µM)
[15]
  EC50: 5 µg/mL (≈ 14.2 µM)
[16]
  EC50: > 25 µg/mL
[17]
  EC50: 10 µg/mL (≈ 28.5 µM)
[18]
  EC50: 10 µg/mL (≈ 28.5 µM)
[19]
  EC50: 5 µg/mL (≈ 14.2 µM)
[20]
  EC50: 10 µg/mL (≈ 28.5 µM)
[21]
  EC50: 10 µg/mL (≈ 28.5 µM)
[22]
  EC50: 10 µg/mL (≈ 28.5 µM)
[23]
  EC50: 10 µg/mL (≈ 28.5 µM)
[24]
  IC50: 5 µg/mL (≈ 14.2 µM)
[25]
  IC50: > 25 µg/mL
[26]
  IC50: > 25 µg/mL
[27]
  IC50: 5 µg/mL (≈ 14.2 µM)
[28]
  IC50: > 25 µg/mL
[29]
  inhibitory activity against the members of the Entero virus family: remarkable inhibitory activity
[29]; Table III, numerator, denominator 7, but 5 for compound 8
  All Enterovirus Serotypes (number of serotypes active / tested): 4
[30]
  inhibitory activity against HRV-1A and HRV-39 in vitro: remarkably inhibitory activity
[31]
  All Rhinovirus Serotypes (number of serotypes active / tested): 16
